Reference: US12509451B2, “Heteroaryl amide inhibitors of CD38” (NAPA THERAPEUTICS LTD., priority 2020, dated 2025)

Key:
[1] = molecular target: T1, human CD38 enzyme in primary human CD4+ T cells (Homo sapiens, UniProt P28907); experiment: NAD+ hydrolase activity assay in primary human activated CD4+ T cells (Assay 7); format: cell-based; conditions: primary human CD4+ T cells activated with anti-CD3/CD28
T1 construct: whole primary human CD4+ T cells (from healthy donors); endogenous in cells
T1 sequence (P28907 1-300): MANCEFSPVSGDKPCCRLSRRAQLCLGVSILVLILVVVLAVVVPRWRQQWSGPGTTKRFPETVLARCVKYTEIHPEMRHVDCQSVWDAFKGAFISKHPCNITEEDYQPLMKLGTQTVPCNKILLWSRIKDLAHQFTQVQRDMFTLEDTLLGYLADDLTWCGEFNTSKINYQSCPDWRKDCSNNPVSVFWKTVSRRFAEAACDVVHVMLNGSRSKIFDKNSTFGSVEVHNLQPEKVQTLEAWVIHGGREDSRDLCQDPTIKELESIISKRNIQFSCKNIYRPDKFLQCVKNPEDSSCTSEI
Description: The in vitro potency of Compound 35 against the human CD38 enzyme was determined by a fluorescence-based NAD+ hydrolase activity assay using the NAD+ analog nicotinamide 1,N^6-etheno-adenine dinucleotide (εNAD+) as substrate. The assay utilized: 1) whole primary human CD4+ T cells (from healthy donors) activated with anti-CD3/CD28 antibodies and expressing human CD38; or II) whole primary human macrophages (from healthy donors) stimulated with LPS to polarize in a pro-inflammatory M1 state expressing human CD38. The cells were incubated in the presence of 8 different concentrations of Compound 35 for 10 minutes and the reaction was started adding the substrate εNAD+. The emission of fluorescence was measured at 410-20 nm at 37° C. every minute for 1 hr. The NAD+ hydrolase activity was calculated as the slope of the linear portion of the fluorescence-time curve and used to calculate the IC50 value.

[2] = molecular target: T2, CD38 (Mus musculus, UniProt P56528); experiment: In vivo efficacy against CD38 in aged mice, single oral dose, liver NAD+ metabolites
T2 construct: aged mice (male C57BL6/J, 22 months old) were fasted for 4 hr; from tissue; host or cells: C57BL6/J mice (aged, DIO obese or LPS-challenged); liver, spleen, plasma
T2 sequence (P56528 1-304): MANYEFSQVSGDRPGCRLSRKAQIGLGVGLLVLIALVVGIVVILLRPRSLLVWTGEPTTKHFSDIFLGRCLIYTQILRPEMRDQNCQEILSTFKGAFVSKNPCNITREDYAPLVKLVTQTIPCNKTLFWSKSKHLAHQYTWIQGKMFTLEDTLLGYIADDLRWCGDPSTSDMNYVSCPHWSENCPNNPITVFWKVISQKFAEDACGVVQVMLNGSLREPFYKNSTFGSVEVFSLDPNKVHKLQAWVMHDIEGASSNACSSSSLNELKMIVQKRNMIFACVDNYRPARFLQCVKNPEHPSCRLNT
Description: The in vivo efficacy of Compound 35 against the human CD38 enzyme was tested in aged mice after oral administration and determined by mass spec analysis of NAD+ metabolites levels in liver tissue. The two main CD38 substrates, NAD+ and NMN, and the 2 main byproducts of the CD38 enzymatic reaction, NAM and ADPR, were measured.
Briefly, aged mice (male C57BL6/J, 22 months old) were fasted for 4 hr and compound 35 was administered via oral gavage at a concentration of 3 mg/kg and 10 mg/kg. Mice were humanely euthanized for liver tissue harvesting at 1-, 3-, and 6-hr post-dosing. A vehicle control (DMSO:Solutol: SBE-CD, 2:5:93, v/v) was included to assess baseline NAD+ metabolites levels.
The procedure for tissue sample preparation and UPLC-MS/MS methods were adapted from Trammell et al. (2013) Compu. Struct. Biotechnol. J. […] (https://www.ncbi.nlm.nih.gov/pmc/articles/PMC3962138/). Briefly, frozen liver tissue was pulverized and resuspended in the extraction buffer (3:1 ethanol:10 mM aq. HEPES, pH 7.1). The samples were vortexed, sonicated briefly in a bath sonicator, and shaken at 55° C. for 3 min at 1,200 rpm. Samples were then centrifuged at 16,000×g for 10 min at 4° C., and the supernatant was dried by speedvac. The dried pellet was resuspended in 97% 10 mM ammonium acetate/3% acetonitrile, centrifuged at 16,000×g for 10 min at 4° C. and 2 μL was injected for LCMS analysis.
The UPLC-MS/MS analysis to measure NAD+ metabolites was performed using a Vanquish UHPLC system and a Q Exactive Orbitrap mass spectrometer with H-ESI ion source both from Thermo Scientific. UPLC separation was performed on a Hypercarb (2.1×100 mm, 5 μm particle size, Thermo) column following the method described in Trammell et al. (2013). Acquisition was carried out in positive ion, Parallel Reaction Monitoring (PRM) mode and targeted […] (t-SIM). The Thermo Xcalibur QualBrowser system software (version 4.2.47) and Freestyle (version 1.8.51.0) softwares was used for the data processing. For relative fold change, peak areas were normalized with respective internal standards, normalized to weight of the tissue sample used, and calculated as fold change relative at 0 h timepoint/vehicle group.

SMILES: COc1cc(C(=O)Nc2ccnc(C(F)(F)F)c2)nc(-n2ccnc2)c1 [Compound 35, 6-(1H-imidazol-1-yl)-4-methoxy-N-(2-(trifluoromethyl)pyridin-4-yl)picolinamide]
- IC50 [1]: 0.179 nM
- ADPR levels in liver ([2]; single 3 mg/kg oral dose): decrease
- NAD+ levels in liver ([2]; single 3 mg/kg oral dose): increase
- NAM levels in liver ([2]; single 3 mg/kg oral dose): decrease
- NMN levels in liver ([2]; single 3 mg/kg oral dose): increase
- ADPR levels in liver ([2]; single 10 mg/kg oral dose): decrease
- NAD+ levels in liver ([2]; single 10 mg/kg oral dose): increase
- NAM levels in liver ([2]; single 10 mg/kg oral dose): decrease
- NMN levels in liver ([2]; single 10 mg/kg oral dose): increase
